{"source": "paper PMC5601180", "about": "“Uptake and metabolism of sulphated steroids by the blood–brain barrier in the adult male rat” (Journal of Neurochemistry, 2017)", "key": {"[1]": {"assay": "Rat brain perfusion in situ: uptake of 3H-steroid sulphates and markers (Vd, Kin, PS)", "details": "for K in, unidirectional transfer coefficient: 0.5 min perfusion, corrected for vascular space (sucrose Vd), n ≥ 3", "experimental": "Each animal also received intraperitoneal heparin, 10 000 U/kg. Body temperature was maintained at 37°C with a heating pad.\nFor analysis of free and sulphated steroids and for steryl‐sulfate sulfohydrolase (EC 3.1.6.2; trivial name steroid sulphatase) assays, both hemispheres were perfused, via right and left common carotid arteries, and 0.8 mM MgCl2 replaced 0.8 mM MgSO4 in the solution. The perfusate was delivered at a constant rate of 6 mL/min for hemi‐perfusions and 12 mL/min for bilateral perfusions, maintaining a net perfusion pressure of 40–70 mm Hg.\nThe remaining tissue of the right hemisphere was homogenised and samples (~50 mg) taken in triplicate (“remainder samples”). Triplicate samples of the perfusate were also taken. Samples were weighed into vials and dissolved (48 h at 20°C) in 0.5 mL Solvable before addition of 4.5 mL Optiphase 2 scintillation fluid for counting of radioactivity.\nBrain uptake was calculated as a volume of distribution V d, where V d (μL/g) = (dpm/g tissue)/(dpm/μL perfusate). The unidirectional transfer coefficients, (K in, μL/g/min), for DHEAS and for PregS were calculated from the V d at 0.5 min, corrected with the V d for the vascular space marker sucrose."}, "[2]": {"assay": "Bilateral brain perfusion, capillary depletion and separation of free and sulphated 3H-steroids", "type": "in vivo, rat", "experimental": "Brains were bilaterally perfused for 0.5 min with ^3H‐labelled DHEAS 1.25 or 6.0 μCi (0.046 or 0.221 MBq)/mL (13.5 or 64.9 nM) or PregS 1.0 μCi (0.037 MBq)/mL (47.6 nM). The hindbrain was removed and each hemisphere homogenised in 2 vols (w/v) buffer containing (in mM) NaCl 141, KCl 4, NaH2PO4 1, CaCl2 2.8, MgCl2 1, HEPES 10, D‐glucose 10, pH 7.4. A sample of the homogenate of the whole right hemisphere was removed for scintillation counting, and the remainder retained as the whole brain homogenate.\nThe left hemisphere homogenate was separated into capillary‐enriched and capillary‐depleted fractions by the method of Triguero et al. (1990). For this, an equal volume of 26% dextran (w/w) solution was added to the homogenate and a sample taken for liquid scintillation counting before centrifugation at 5300 g for 15 min at 4°C. The upper layer was taken as the capillary‐depleted fraction and the pellet as the capillary‐enriched fraction.\nBefore extraction, fractions were sonicated in 5 vols ice‐cold, 5 mM potassium phosphate buffer, pH 7. Small portions (150 μL) were removed for measurement of protein content (Bradford 1976) and total radioactivity. For the latter, homogenate was solubilised (15 min, 20°C) in 10 vols Soluene then bleached (2 h, 50°C) with 0.3 vol hydrogen peroxide before counting in Ecoscint H containing Triton X‐100 (6% v/v), glacial acetic acid (0.6% v/v) and butylated hydroxytoluene (2% w/v). The remainder of each homogenate was extracted as described in detail elsewhere (Ebner et al. 2006; Sujkovic et al. 2009), to give free steroid and steroid sulphate fractions. First, homogenates were extracted into 20 vols ethanol containing acetic acid 3% (v/v). After centrifugation (28 000 g, 30 min, 25°C) to remove denatured protein, the extracts were delipidated by partitioning three times against 10 vols isooctane. Extracts were dried down under vacuum and redissolved in ethanol, which was then diluted to 20% v/v in 5 mM potassium phosphate buffer, pH 7.0 at a total volume of 20 ml. Separation of free and sulphated steroids was achieved by passage through a 60 mg Oasis MAX® cartridge. After washing the cartridge with 5 mL ethanol at 20% v/v in ammonium acetate (20 mM, pH 7), free steroids were eluted in 4 mL ethyl acetate. Passage of 20 mL ethanol at 60% v/v in formate/pyridine buffer (20 mM, pH 3) eluted any steroid glucuronides present. Finally, steroid sulphates were eluted in 30 mL 60% v/v ethanol containing ammonium carbonate 1% (w/v). To measure the radioactivity of each fraction, portions were dried down and then redissolved in Ecoscint H for counting. The remainder was dried down, redissolved in ethanol 96% v/v and stored at −20°C for subsequent analysis by TLC."}, "[3]": {"assay": "TLC analysis of 3H-steroid metabolites in brain fractions after perfusion", "type": "in vivo, rat", "details": "after 0.5 min perfusion with the 3H-steroid sulphate", "from_the_text": "For the analysis of ^3H‐steroid metabolites, samples were spotted onto TLC plates for chromatography in the following solvent systems: A (for sulphated steroids), ethyl acetate:ethanol:ammonia (5 : 5 : 1, v/v); B (for free steroids) cyclohexane:n‐butyl acetate (1 : 2, v/v); C (for acetylated steroids), isooctane:ethyl acetate (13 : 7, v/v). Non‐radioactive steroid standards could be visualised by exposure to iodine vapour whereas the ^3H‐steroids were detected by placing the TLC plates in contact with imaging film for subsequent visualisation in a phosphorimager. Additional analysis of the steroid sulphates employed elution from the TLC plate in ammoniated ethanol then drying down and redissolving in sodium acetate buffer, 0.5 M, pH 5.0 for desulphation by incubation with Helix sulphatase (1 mg/mL, 40°C overnight followed by 55°C for 3 h). The resulting free steroids were adsorbed onto a 60 mg Oasis HLB® cartridge and eluted in 5 mL ethyl acetate. This eluate was dried down and analysed by TLC as above for free steroids. Further identification of ^3H‐steroid metabolites was obtained by acetylating them alongside both ^3H‐labelled and non‐radioactive standards. The TLC eluates or standards were dried down and redissolved in 200 μL pyridine. An equal volume of acetic anhydride was then added followed by incubation at 37°C for 2 h. […]"}, "[4]": {"details": "rats, ref Kishimoto and Hoshi (1972), cited from earlier work"}, "[5]": {"details": "after intracerebral injection, rats; ref Asaba et al. (2000); cited from earlier work"}, "[6]": {"details": "after 0.5 min bilateral perfusion, mean ± SEM, n = 5"}}, "note": "Where two headings read alike, the source gives them in different places."}
{"smiles": "C[C@]12CC[C@H](OS(=O)(=O)O)CC1=CCC1C2CC[C@]2(C)C(=O)CCC12", "note": "(some centres unmarked) [DHEAS, dehydroepiandrosterone sulphate]", "values": [{"measurement": "K in, unidirectional transfer coefficient", "setting": "[1]; Cerebellum, mean ± SEM", "value": "38.6 ± 7.0", "unit": "µL/g/min"}, {"measurement": "K in, unidirectional transfer coefficient", "setting": "[1]; Hippocampus, mean ± SEM", "value": "45.4 ± 3.4", "unit": "µL/g/min"}, {"measurement": "K in, unidirectional transfer coefficient", "setting": "[1]; Hypothalamus, mean ± SEM", "value": "57.7 ± 2.7", "unit": "µL/g/min"}, {"measurement": "K in, unidirectional transfer coefficient", "setting": "[1]; Medulla, mean ± SEM", "value": "39.4 ± 8.9", "unit": "µL/g/min"}, {"measurement": "position of log PS in plot against cLog Poct relative to the line for passively permeating compounds", "setting": "[1]; PS from K in as slope of Vd against time 0.25 to 0.5 min, implies net efflux", "value": "below the 95% confidence limits of the line of best fit for passively permeating compounds"}, {"measurement": "K in, unidirectional transfer coefficient", "setting": "[1]; Parietal cortex, mean ± SEM", "value": "38.4 ± 4.5", "unit": "µL/g/min"}, {"measurement": "K in, unidirectional transfer coefficient", "setting": "[1]; Remainder of brain tissue, mean ± SEM", "value": "44.8 ± 4.1", "unit": "µL/g/min"}, {"measurement": "K in, unidirectional transfer coefficient", "setting": "[1]; Striatum, mean ± SEM", "value": "47.2 ± 3.9", "unit": "µL/g/min"}, {"measurement": "K in, unidirectional transfer coefficient", "setting": "[1]; Sup. colliculus, mean ± SEM", "value": "63.5 ± 6.7", "unit": "µL/g/min"}, {"measurement": "V d, corrected for sucrose space (vascular volume), control", "setting": "[1]; brain uptake after 0.5 min perfusion without inhibitors (control of Fig. 3), mean ± SEM, n = 3", "value": "32.47 ± 2.03", "unit": "µL/g"}, {"measurement": "radioactivity in capillary fraction", "setting": "[2]; [6]", "value": "3451 ± 511", "unit": "dpm/mg protein"}, {"measurement": "radioactivity in parenchyma fraction", "setting": "[2]; [6]", "value": "3279 ± 388", "unit": "dpm/mg protein"}, {"measurement": "recovery of total homogenate radioactivity into capillary fraction", "setting": "[2]; [6]", "value": "2.2 ± 0.3", "unit": "%"}, {"measurement": "recovery of total homogenate radioactivity into parenchyma fraction", "setting": "[2]; [6]", "value": "25.7 ± 2.3", "unit": "%"}, {"measurement": "percentage of 3H-label as free steroid, parenchyma versus capillary", "setting": "[2]; after 0.5 min perfusion, Fig. 4, p < 0.02", "value": "significantly higher percentage of the free steroid in the parenchyma than in the brain capillaries"}, {"measurement": "desulphation on uptake into brain", "setting": "[2]; within 0.5 min of uptake, brain perfusion in situ", "value": "> 50", "unit": "%"}, {"measurement": "metabolism in brain fractions", "setting": "[3]", "value": "underwent 17‐hydroxylation to form androstenediol in both the steroid sulphate and the free steroid fractions, with some additional formation of androstenedione in the latter"}, {"measurement": "radiolabel accumulating as free steroid in the brain", "setting": "[4]; intracardiac injection", "value": "~50", "unit": "%"}, {"measurement": "radiolabel accumulating as free steroid in the brain", "setting": "[4]; intracerebral injection", "value": 5, "unit": "%"}, {"measurement": "3H-label appearing in the jugular vein as unchanged steroid sulphate", "setting": "[5]", "value": 90, "unit": "%"}]}
